Measured values reported in patent publication US8426449B2, “Aminoalkylphenyl antagonists of prostaglandin D2 receptors” (Panmira Pharmaceuticals, LLC, priority 2008, dated 2013).

Molecular target: T1, human DP2 receptor (Homo sapiens, UniProt Q9Y5Y4)
T1 construct: expressed in transfected cells
T1 sequence (Q9Y5Y4 1-395): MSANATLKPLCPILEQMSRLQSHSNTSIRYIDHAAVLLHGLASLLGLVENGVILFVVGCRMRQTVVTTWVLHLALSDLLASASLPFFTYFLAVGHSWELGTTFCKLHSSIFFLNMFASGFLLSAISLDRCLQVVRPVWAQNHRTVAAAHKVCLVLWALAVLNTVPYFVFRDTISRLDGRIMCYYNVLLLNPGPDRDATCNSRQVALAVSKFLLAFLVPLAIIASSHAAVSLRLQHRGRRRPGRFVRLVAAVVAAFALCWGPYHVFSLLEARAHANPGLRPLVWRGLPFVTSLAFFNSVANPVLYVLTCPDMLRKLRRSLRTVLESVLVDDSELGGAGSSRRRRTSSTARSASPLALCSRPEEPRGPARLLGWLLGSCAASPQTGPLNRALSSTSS
Experiment: DP2/CRTH2 radioligand binding assay using [3H]PGD2
Conditions: hDP2 (CRTH2) binding assay, membranes of HEK293 cells expressing recombinant human DP2
Protocol: The ability of a compound to bind to the human DP2 receptor is assessed via a radioligand binding assay using [^3H]PGD2. HEK293 cells stably expressing recombinant human DP2 are resuspended in 10 mM Hepes, 7.4 containing 1 mM DTT, lysed and centrifuged at 75,000×g to pellet the membranes. The membranes are resuspended in 10 mM Hepes, 7.4 containing 1 mM DTT and 10% glycerol to approximately 5 mg protein/ml. Membranes (2-10 μg protein/well) are incubated in 96-well plates with 1 nM [^3H]PGD2 and test compound in Assay Buffer (50 mM Hepes, 10 mM MnCl2, 1 mM EDTA, plus or minus 0.2% human serum albumin, pH 7.4) for 60 minutes at room temperature. The reactions are terminated by rapid filtration through Whatman GF/C glass fibre filter plates. The filter plates were pre-soaked in 0.33% polyethylenimine for 30 minutes at room temperature then washed in Wash Buffer (50 mM Hepes, 0.5 M NaCl pH 7.4) prior to harvesting. After harvesting, the filter plates are washed 3 times with 1 ml cold Wash Buffer then dried. Scintillant is then added to the plates and the radioactivity retained on the filters is determined on a Packard TopCount (Perkin Elmer). Specific binding is determined as total radioactive binding minus non-specific binding in the presence of 10 μM PGD2. IC50s were determined using GraphPad prism analysis of drug titration curves.

Row | Compound | IC50 [nM]
1 | O=C(O)Cc1cccc(Oc2ccc(Br)cc2CN(C(=O)OCc2ccccc2)C2CCc3ccccc32)c1 (stereo in doubt) [Compound 1-6, (3-{2-[((R)-Benzyloxycarbonyl-indan-1-yl-amino)-methyl]-4-bromo-phenoxy}-phenyl)-acetic acid] | < 300
2 | CC(=O)N(Cc1cc(C(F)(F)F)ccc1Oc1cccc(CC(=O)O)c1)C1CCc2ccccc21 (stereo in doubt) [Compound 1-13, (3-{2-[((R)-Acetyl-indan-1-yl-amino)-methyl]-4-trifluoromethyl-phenoxy}-phenyl)-acetic acid] | < 300
3 | CC(=O)N(Cc1cc(C(F)(F)F)ccc1Oc1cccc(CC(=O)O)c1)C1CCc2ccccc21 (stereo in doubt) [Compound 1-14, (3-{2-[((S)-Acetyl-indan-1-yl-amino)-methyl]-4-trifluoromethyl-phenoxy}-phenyl)-acetic acid] | < 300
4 | COC(=O)N(Cc1cc(C(F)(F)F)ccc1Oc1cccc(CC(=O)O)c1)C1CCc2ccccc21 (stereo in doubt) [Compound 1-19, (3-{2-[((R)-Indan-1-yl-methoxycarbonyl-amino)-methyl]-4-trifluoromethyl-phenoxy}-phenyl)-acetic acid] | < 300
5 | CC(=O)N(CCc1ccccc1)Cc1cc(Br)ccc1Oc1cccc(CC(=O)O)c1 [Compound 1-1, (3-{2-[(Acetyl-phenethyl-amino)-methyl]-4-bromo-phenoxy}-phenyl)-acetic acid] | < 300
6 | CC(=O)N(Cc1cc(Br)ccc1Oc1cccc(CC(=O)O)c1)C(C)(C)Cc1ccc(F)cc1 [Compound 1-2, {3-[2-({Acetyl-[2-(4-fluoro-phenyl)-1,1-dimethyl-ethyl]-amino}-methyl)-4-bromo-phenoxy]-phenyl}-acetic acid] | < 300
7 | COC(=O)N(Cc1ccccc1)Cc1cc(Br)ccc1Oc1cccc(CC(=O)O)c1 [Compound 1-3, (3-{2-[(Benzyl-methoxycarbonyl-amino)-methyl]-4-bromo-phenoxy}-phenyl)-acetic acid] | < 300
8 | COC(=O)N(CCc1ccccc1)Cc1cc(Br)ccc1Oc1cccc(CC(=O)O)c1 [Compound 1-4, (3-{4-Bromo-2-[(methoxycarbonyl-phenethyl-amino)-methyl]-phenoxy}-phenyl)-acetic acid] | < 300
9 | COC(=O)N(Cc1cc(Br)ccc1Oc1cccc(CC(=O)O)c1)[C@@H](C)Cc1ccccc1 [Compound 1-5, [3-(4-Bromo-2-{[methoxycarbonyl-((S)-1-methyl-2-phenyl-ethyl)-amino]-methyl}-phenoxy)-phenyl]-acetic acid] | < 300
10 | COc1ccc(CC(=O)O)cc1Oc1ccc(Br)cc1CN[C@H]1c2ccccc2C[C@H]1O [Compound 1-7, (3-{4-Bromo-2-[((1S,2R)-2-hydroxy-indan-1-ylamino)-methyl]-phenoxy}-4-methoxy-phenyl)-acetic acid] | > 1000
11 | CCN(Cc1cc(Br)ccc1Oc1cc(CC(=O)O)ccc1OC)C(C)=O [Compound 1-8, (3-{2-[(Acetyl-ethyl-amino)-methyl]-4-bromo-phenoxy}-4-methoxy-phenyl)-acetic acid] | < 300
12 | COc1ccc(CC(=O)O)cc1Oc1ccc(Br)cc1CN(Cc1ccccc1)C(C)=O [Compound 1-9, (3-{2-[(Acetyl-benzyl-amino)-methyl]-4-bromo-phenoxy}-4-methoxy-phenyl)-acetic acid] | < 300
13 | CCN(Cc1cc(Br)ccc1Oc1cc(CC(=O)O)ccc1OC)C(=O)OC [Compound 1-10, (3-{4-Bromo-2-[(ethyl-methoxycarbonyl-amino)-methyl]-phenoxy}-4-methoxy-phenyl)-acetic acid] | < 300
14 | COC(=O)N(Cc1ccccc1)Cc1cc(Br)ccc1Oc1cc(CC(=O)O)ccc1OC [Compound 1-11, (3-{2-[(Benzyl-methoxycarbonyl-amino)-methyl]-4-bromo-phenoxy}-4-methoxy-phenyl)-acetic acid] | < 300
15 | C[C@H](NCc1cc(C(F)(F)F)ccc1Oc1cccc(CC(=O)O)c1)[C@H](O)c1ccccc1 [Compound 1-12, (3-{2-[((1S,2R)-2-Hydroxy-1-methyl-2-phenyl-ethylamino)-methyl]-4-trifluoromethyl-phenoxy}-phenyl)-acetic acid] | > 1000
16 | O=C(O)Cc1cccc(Oc2ccc(C(F)(F)F)cc2CNC(=O)c2ccc(Cl)cc2)c1 [Compound 1-15, (3-{2-[(4-Chloro-benzoylamino)-methyl]-4-trifluoromethyl-phenoxy}-phenyl)-acetic acid] | > 300
17 | CN(Cc1cc(C(F)(F)F)ccc1Oc1cccc(CC(=O)O)c1)C(=O)Cc1ccccc1 [Compound 1-16, (3-{2-[(Methyl-phenylacetyl-amino)-methyl]-4-trifluoromethyl-phenoxy}-phenyl)-acetic acid] | < 300
18 | CCN(Cc1cc(C(F)(F)F)ccc1Oc1cccc(CC(=O)O)c1)C(=O)c1ccccc1 [Compound 1-17, (3-{2-[(Benzoyl-ethyl-amino)-methyl]-4-trifluoromethyl-phenoxy}-phenyl)-acetic acid] | < 300
19 | CCN(Cc1cc(C(F)(F)F)ccc1Oc1cccc(CC(=O)O)c1)C(=O)Cc1ccccc1 [Compound 1-18, (3-{2-[(Ethyl-phenylacetyl-amino)-methyl]-4-trifluoromethyl-phenoxy}-phenyl)-acetic acid] | > 300
20 | COC(=O)N(Cc1cc(C(F)(F)F)ccc1Oc1cccc(CC(=O)O)c1)C1Cc2ccccc2C1 [Compound 1-20, (3-{2-[(Indan-2-yl-methoxycarbonyl-amino)-methyl]-4-trifluoromethyl-phenoxy}-phenyl)-acetic acid] | < 300
21 | CN(Cc1cc(C(F)(F)F)ccc1Oc1cccc(CC(=O)O)c1)C(=O)OCc1ccccc1 [Compound 1-21, (3-{2-[(Benzyloxycarbonyl-methyl-amino)-methyl]-4-trifluoromethyl-phenoxy}-phenyl)-acetic acid] | < 300
22 | O=C(O)Cc1cccc(Oc2ccc(C(F)(F)F)cc2CNS(=O)(=O)c2ccc(Cl)cc2)c1 [Compound 1-22, (3-{2-[(4-Chloro-benzenesulfonylamino)-methyl]-4-trifluoromethyl-phenoxy}-phenyl)-acetic acid] | < 300
23 | CN(Cc1cc(C(F)(F)F)ccc1Oc1cccc(CC(=O)O)c1)S(=O)(=O)c1ccc(Cl)cc1 [Compound 1-23, [3-(2-{[(4-Chloro-benzenesulfonyl)-methyl-amino]-methyl}-4-trifluoromethyl-phenoxy)-phenyl]-acetic acid] | < 300
24 | CN(Cc1cc(C(F)(F)F)ccc1Oc1cccc(CC(=O)O)c1)S(=O)(=O)c1ccccc1C(F)(F)F [Compound 1-24, [3-(2-{[Methyl-(2-trifluoromethyl-benzenesulfonyl)-amino]-methyl}-4-trifluoromethyl-phenoxy)-phenyl]-acetic acid] | > 300
25 | COc1ccc(S(=O)(=O)N(C)Cc2cc(C(F)(F)F)ccc2Oc2cccc(CC(=O)O)c2)cc1 [Compound 1-25, [3-(2-{[(4-Methoxy-benzenesulfonyl)-methyl-amino]-methyl}-4-trifluoromethyl-phenoxy)-phenyl]-acetic acid] | > 300
26 | CCN(Cc1cc(C(F)(F)F)ccc1Oc1cccc(CC(=O)O)c1)S(=O)(=O)c1ccc(OC)cc1 [Compound 1-26, [3-(2-{[Ethyl-(4-methoxy-benzenesulfonyl)-amino]-methyl}-4-trifluoromethyl-phenoxy)-phenyl]-acetic acid] | < 300
27 | CCN(Cc1cc(C(F)(F)F)ccc1Oc1cccc(CC(=O)O)c1)S(=O)(=O)c1ccc(C)cc1 [Compound 1-27, [3-(2-{[Ethyl-(toluene-4-sulfonyl)-amino]-methyl}-4-trifluoromethyl-phenoxy)-phenyl]-acetic acid] | < 300
28 | CCN(Cc1cc(C(F)(F)F)ccc1Oc1cccc(CC(=O)O)c1)S(=O)(=O)c1ccc(S(C)(=O)=O)cc1 [Compound 1-28, [3-(2-{[Ethyl-(4-methanesulfonyl-benzenesulfonyl)-amino]-methyl}-4-trifluoromethyl-phenoxy)-phenyl]-acetic acid] | > 300
29 | CCN(Cc1cc(C(F)(F)F)ccc1Oc1cccc(CC(=O)O)c1)S(=O)(=O)c1ccc(C(C)=O)cc1 [Compound 1-29, [3-(2-{[(4-Acetyl-benzenesulfonyl)-ethyl-amino]-methyl}-4-trifluoromethyl-phenoxy)-phenyl]-acetic acid] | < 300
30 | CCN(Cc1cc(C(F)(F)F)ccc1Oc1cccc(CC(=O)O)c1)S(=O)(=O)c1ccc2ccccc2c1 [Compound 1-30, [3-(2-{[Ethyl-(naphthalene-2-sulfonyl)-amino]-methyl}-4-trifluoromethyl-phenoxy)-phenyl]-acetic acid] | < 300
